Test results as given in patent publication US12691124B2, “Methods of controlling and improving brain health” (ICAHN SCHOOL OF MEDICINE AT MOUNT SINAI, priority 2019, dated 2026).

Key:
Assay type in all cases: cell-based, mouse
primary cortical neurons [1] = assay: Hypoxia (1% O2) induced neuronal death; conditions: 1% O2, 1 week pretreatment
Source text: While glutamate toxicity is a widely used and clinically relevant assay, there are other factors that contribute to neuronal death in vivo such as lack of oxygen which occurs after stroke or protein aggregates which are observed in many neurodegenerative disorders. To understand if the observed protective effect is specific to glutamate toxicity, neurons were exposed to either hypoxic (1% O2) environments or Aβ1-43 oligomers (FIGS. 10E and 10F).
IBET treatment protects neurons from neurotoxin-induced cell death (FIGS. 22C-22E). Dot plots show the percentage of cells that are propidium iodide negative after different neurotoxic insults when pre-treated with either control or iBET for 1 week. 6 hours and 24 hours after 1 mM glutamate exposure are shown in FIG. 22C; 18 hours, 24 hours, and 48 hours of hypoxia (1% O2) are shown in FIG. 22D; and 48 hours and 72 hours of Aβ1-43 oligomer exposure (10 μM) are shown in FIG. 22E. Two-way repeated measures ANOVA with multiple comparisons, n=3 per group, ***p<0.001. Experiments were repeated a minimum of three times.

[2] = tested on: primary cortical neurons exposed to glutamate; assay: Glutamate excitotoxicity in primary cortical neurons
Method: (§1) LDH Assay. LDH activity was measured using the Pierce LDH Cytotoxicity Assay Kit. Culture media was incubated with an equal volume of LDH master mix and incubated for 30 minutes at room temperature in the dark. After, the same volume of stop reagent was added and the absorbance was measured at 490 and 680 nm. Maximum LDH measurements were obtained by adding lysis buffer to release the total amount of LDH in the sample. LDH release is calculated as a percent of the maximum.
(§2) Propidium Iodide Assay. Propidium iodide (1 mg/ml, Life Technologies #P3566) was added to each culture well at a final concentration of 0.5 μg/ml. Cultures were incubated for 30 minutes at 37 degrees then washed with PBS. Cells were then fixed with 4% paraformaldehyde in PBS for 15 minutes at room temperature. After fixation, cells were washed with PBS and then mounted using mounting media containing DAPI.
In addition to increasing longevity, rapamycin treatment protects neurons from toxic stimuli such as excessive glutamate. […] Because IBET858 increased neuronal lifespan to the same extent as rapamycin, it was hypothesized that BET inhibition could also induce a protective state in neurons. To test if IBET858 can prevent neuronal death, the neurons were exposed to excitotoxic levels of glutamate, a common in vitro assay that mirrors neuronal death observed in vivo after stroke or neurodegeneration. High levels of glutamate cause a strong influx of calcium into the neuron ultimately leading to necrosis followed by apoptosis.
Neurons were treated with IBET858 for increasing durations (2 h, 24 h, 72 h or 1 week) before stimulation with an excitotoxic amount of glutamate (1 mM) on day 14 when mature synapses fully express glutamate receptors. Chronic but not acute BET inhibition increases neuronal survival in response to glutamate toxicity, as measured by the LDH assay. […] Therefore a 1 week treatment time point was used for all subsequent experiments.

primary cortical neurons [3] = assay: Neuronal longevity in primary cortical neuron culture (LDH, propidium iodide, cleaved caspase 3)
Source text: Primary Cortical Neuron Culture. Embryonic day 18 (E18) timed-pregnant female mice were anesthetized with CO2 and sacrificed by cervical dislocation. In a dissection hood, 24-26 embryos per experiment were collected through an incision of the mother's abdomen, taken out of the amniotic sacs and decapitated in ice cold Hank's Balanced Salt Solution (HBSS). Using fine scissors and forceps, brains were rapidly dissected and the cortex cleared from meninges and isolated under a dissection microscope. Cortices were collected in ice cold HBSS and kept on ice until all embryos had been dissected. In a tissue culture hood, HBSS was removed and the cortex tissue digested by 0.25% Trypsin-EDTA for 12 minutes at 37° C., followed by DNase1 treatment for 10 minutes at 37° C. The tissue was dissociated by serial trituration with a 25 ml serological pipette, followed by trituration with 10 ml and 5 ml serological pipettes. Cell suspension was washed once with DMEM medium, supplemented with 10% FBS and 1% penicillin/streptomycin and passed through a […] cell strainer before counted on a hemocytometer. Single cells were seeded on poly-D-lysine (0.1 mg ml-1) coated wells at a density of 1×10^6 cells per well on a 12-well plate. Cells were grown in Neurobasal medium, complemented with B27 supplement, N2 supplement, and 0.5 mM L-glutamine and maintained at 37° C. in 5% CO2 for 1 week. Cultures were treated with DMSO (0.2%), I-BET858 (1 μM, 0.2% DMSO), BDNF (50 ng/ml), or BDNF+I-BET858 for 2 and 12 h on day 7 in vitro. Cultures were washed with phosphate-buffered saline (PBS) on ice and processed for RNA isolation using TRIzol/Chloroform extraction.
as §1, §2
In order to understand the effect of chronic BET inhibition on neuronal survival, primary cortical mouse neurons were cultured in the presence or absence of the brain permeable BET inhibitor IBET858 (1 μM). To quantify cell death over time, the levels of lactate dehydrogenase (LDH) were measured in culture media which is presumably released during cell death as the membranes become permeable. […] The observed decrease in LDH activity after BET inhibition occurs in a dose-dependent manner. LDH activity, which is an indirect measure of cell death, may be affected by other factors such as changes in metabolism or expression of the LDH genes. Therefore in order to confirm these findings, propidium iodide (PI) staining was used to directly quantify the number of dead neurons over time. This membrane impermeable dye increases in fluorescence 20-30 fold after intercalating DNA265. […] To give context to the magnitude of this effect on survival, this experiment was repeated with a direct comparison to the mTOR inhibitor, rapamycin (20 nM).

CC(=O)N1c2ccc(-c3ccc(CN4CCCCC4)cc3)cc2[C@H](Nc2ccccc2)CC1C (stereo in doubt) [IBET858]
loss of neurons due to hypoxia (primary cortical neurons [1]): significantly prevents loss of neurons
protection from excitotoxicity, IBET858 compared with rapamycin ([2]; 1 week IBET858 1 μM, Rapamycin 20 nM, 1 mM glutamate): as well as rapamycin
cell death after glutamate exposure, propidium iodide ([2]; 1 week pretreatment, 1 mM glutamate): fewer neurons treated with IBET858 die
excitotoxicity-induced neuronal death, LDH assay ([2]; 1 week pretreatment, 1 mM glutamate, day 14): almost completely prevents
excitotoxicity-induced neuronal death, LDH assay ([2]; 72 h pretreatment, 1 mM glutamate): mild protective effect
neuroprotective phenotype after washout, glutamate exposure ([2]; temporary pretreatment, wash out, 4 days on DMSO, 1 mM glutamate day 14): neuroprotective phenotype that is maintained even in the absence of IBET
dose dependence of decrease in LDH activity (primary cortical neurons [3]): dose-dependent
neuron survival over time, propidium iodide assay (primary cortical neurons [3]; 1 μM): survive significantly longer than control
number of cells positive for cleaved caspase 3 (primary cortical neurons [3]; 1 μM): decreased
LDH activity in culture media over time (primary cortical neurons [3]; 1 μM, from day 16 in vitro): significantly less LDH activity
neuronal lifespan, IBET858 compared with rapamycin (primary cortical neurons [3]; IBET858 1 μM, rapamycin 20 nM): to the same extent as rapamycin if not more
